Legend:
[1] = system: rat elastase-induced emphysema; assay: Repair of alveoli in elastase-induced emphysema (rat model); type: in vivo, male Sprague Dawley rats; conditions: oral, once daily starting 21 days post elastase injury, morphometric analysis of lung sections
Method: A RAR selective agonist according to the invention was evaluated for its effects on alveolar repair in a rat model for rat elastase-induced emphysema in accordance to D. Massaro et al. Nature Medicine1997, 3, 675. Animals were divided into treatment groups of approximately eight. Lung inflammation and alveolar damage was induced in male Sprague Dawley rats by a single instillation of pancreatic elastase(porcine derived, Calbiochem) 2 U/gram body mass. Three weeks post injury, all-trans retinoic acid or RAR agonist test compound was dissolved in dimethyl-sulfoxide (20 mg/ml) and stored at −20 C. Fresh working stocks were prepared daily by dilution in PBS to a final concentration of 2mg/ml. Animals were dosed once daily with the retinoid by intraperitoneal injection or orally, starting 21 days post injury. Control groups were challenged with elastase and 21 days later treated with Vehicle (DMSO/PBS) for 14 days. Animals were sacrificed 24 hours after the last dose by exsanguination under deep anesthesia.
The lungs were inflated with 10% neutral buffered formalin by intratracheal instillation at a constant rate (1 ml/gram body mass/min). The lung was excised and immersed in fixative for 24 hours prior to processing. Standard methods were used to prepare 5 μm paraffin sections. Sections were stained with Hematoxylin and Eosin (H%E). Computerized Morphometric analysis was performed to determine the average alveolar size and alveolar number.

Row | melting point | SMILES | % repair area ([1]; dose 0.0001 mg/kg) | % repair area ([1]; dose 0.001 mg/kg) | % repair area ([1]; dose 0.01 mg/kg) | % repair area ([1]; dose 0.1 mg/kg)
1 | – | CCCCCCc1cc2c(cc1/C=C/c1ccc(C(=O)O)s1)C(C)(C)CCC2(C)C [Example 9, (E)-5-[2-(3-Hexyl-5,5,8,8-tetramethyl-5,6,7,8-tetrahydro-naphthalen-2-yl)-vinyl]-thiophene-2-carboxylic Acid] | 38% | 42% | 18% | 42%
2 | 176 to 177 °C | CCCCCc1cc2c(cc1/C=C/c1ccc(C(=O)O)s1)C(C)(C)CCC2(C)C [Example 9.2, (E)-5-[2-(3-pentyl-5,5,8,8-tetramethyl-5,6,7,8-tetrahydro-naphthalen-2-yl)-vinyl]thiophene-2-carboxylic acid] | – | – | – | –

Source: patent US6403810B2, “Thiophene derivatives” (Hoffmann-La Roche Inc., priority 2000, dated 2002)
